The source made the active and inactive calls. The rule behind the calls is not given here.
How the values were obtained:
PC-12 [1] = test: Cytotoxicity against rat PC12 cells assessed as cell viability at 40 uM incubated for 24 hrs by CCK-8 assay relative to control; assay type: functional; details: read-out: Activity
PC-12 [2] = test: Cytotoxicity against rat PC12 cells assessed as cell viability at 10 uM incubated for 24 hrs by CCK-8 assay relative to control; assay type: functional; details: read-out: Activity
[3] = Cytotoxicity against mouse RAW cells assessed as cell viability; assay type: toxicity, cell-based; parameters: concentration or dose not given beside the values; details: read-out: Activity
PC-12 [4] = test: Neuroprotective activity against t-BHP induced oxidative damage in rat PC12 cells model assessed as reduction in intracellular ROS level at 10 uM incubated for 24 hrs by DCFH-DA probe based analysis; assay type: functional, cell-based
Rattus norvegicus [5] = test: (§1) Neuroprotective activity against cerebral ischemia-reperfusion injury in MCAO rat model assessed as reduction in infarct area at 10 mg/kg, iv treated after 2 hrs ischemia followed by reperfusion measured after 1 week of post-reperfusion by TTC staining based analysis; assay type: functional, organism-based; details: time 1.0 weeks
Rattus norvegicus [6] = test: as §1, with “ROS accumulation in cortex” for “infarct area”, “dihydroethidium” for “TTC”, “based fluorescence microscopic” for “based”; assay type: functional, organism-based; details: time 1.0 weeks
PC-12 [7] = test: Neuroprotective activity against t-BHP induced oxidative damage in rat PC12 cells model assessed as reduction in intracellular ROS level at 10 uM incubated for 24 hrs by DCFH-DA probe based flow cytometry analysis; assay type: functional, cell-based
PC-12 [8] = test: Antioxidant activity in t-BHP -induced rat PC12 cells at 2.5 to 20 uM; assay type: functional, cell-based; details: dose 2.5-20 µM
PC-12 [9] = test: Neuroprotective activity against t-BHP induced oxidative damage in rat PC12 cells model assessed as cell viability at 2.5 to 20 uM incubated for 24 hrs by CCK-8 assay; assay type: functional, cell-based; details: dose 2.5-20 µM

SMILES	viability at 40 µM (PC-12 [1]) [%]	viability at 10 µM (PC-12 [2]) [%]	further results
COC(=O)[C@@H](NC(=O)/C=C/c1ccc(OC)c2oc(-c3ccc(C)cc3)cc12)C(C)C	94.2	73.1	–
COc1ccc(-c2cc3c(/C=C/C(=O)NCCc4ccc(O)c(O)c4)ccc(OC)c3o2)cc1OC	104	70.7	–
CCCC[C@H](NC(=O)/C=C/c1ccc(OC)c2oc(-c3ccc(C)cc3)cc12)C(=O)OC	93.5	56	–
CC(C)(C)OO [TERT-BUTYL HYDROPEROXIDE]	–	52.1	–
COc1ccc(/C=C/C(=O)c2ccc3c(c2)OCO3)c2cc(-c3ccc(C)cc3)oc12	95	58.1	–
COc1ccc(/C=C/C(=O)c2ccc(N3CCOCC3)cc2)c2cc(-c3ccc(C)cc3)oc12	85	77.9	–
COc1ccc(/C=C/C(=O)NCCc2ccccc2)c2cc(-c3ccc(C)cc3)oc12	99.1	93.8	–
COC(=O)[C@@H](NC(=O)/C=C/c1ccc(OC)c2oc(-c3ccc(C)cc3)cc12)c1ccc(O)cc1	92	69.7	–
COc1cc(OC)cc(C(=O)/C=C/c2ccc(OC)c3oc(-c4ccc(C)cc4)cc23)c1	92.2	76.1	–
COc1ccc(/C=C/C(=O)c2cccc(O)c2)c2cc(-c3ccc(C)cc3)oc12	80.6	37.7	viability [3]: < 80%
CC1=NN(c2ccccc2)C(=O)C1	–	–	Activity (PC-12 [4]): Active; Activity (Rattus norvegicus [5]): Active; Activity (Rattus norvegicus [6]): Active; Activity (PC-12 [7]): Active
COC(=O)[C@@H]1CCC(=O)N1C(=O)/C=C/c1ccc(OC)c2oc(-c3ccc(C)cc3)cc12	95.3	91	–
COC(=O)CNC(=O)/C=C/c1ccc(OC)c2oc(-c3ccc(C)cc3)cc12	93.9	68.9	–
COc1ccc(C(=O)/C=C/c2ccc(OC)c3oc(-c4ccc(C)cc4)cc23)cc1	99.5	56.8	–
COC(=O)[C@@H](NC(=O)/C=C/c1ccc(OC)c2oc(-c3ccc(C)cc3)cc12)c1ccccc1	99.3	74.1	–
COc1ccc(-c2cc3c(/C=C/C(=O)c4cc(OC)c(OC)c(OC)c4)ccc(OC)c3o2)cc1	72.9	43.7	viability [3]: < 80%
COc1cc(C(=O)/C=C/c2ccc(OC)c3oc(-c4ccc(C)cc4)cc23)cc(OC)c1O	82	37.7	–
COc1cc(OC)cc(-c2cc3c(/C=C/C(=O)c4cc(OC)c(OC)c(OC)c4)ccc(OC)c3o2)c1	109	89.2	–
COc1ccc(/C=C/C(=O)NCCc2ccc(O)c(O)c2)c2cc(-c3ccc(C)cc3)oc12	103	99.3	Activity (PC-12 [8]): Active; Activity (PC-12 [9]): Active
COc1ccc(C(=O)/C=C/c2ccc(OC)c3oc(-c4ccc(C)cc4)cc23)cc1O	69.2	14.9	–
COc1cc(C(=O)/C=C/c2ccc(OC)c3oc(-c4ccc(OC)c(OC)c4)cc23)ccc1O	93.8	12.9	viability [3]: < 80%
COc1ccc(C(=O)/C=C/c2ccc(OC)c3oc(-c4ccc(C)cc4)cc23)c(OC)c1OC	83.9	71.9	–

SMILES	viability at 40 µM (PC-12 [1]) [%]	viability at 10 µM (PC-12 [2]) [%]	further results
COc1cc(C(=O)/C=C/c2ccc(OC)c3oc(-c4ccc(C)cc4)cc23)ccc1O	72.8	36.3	–
COc1cccc(C(=O)/C=C/c2ccc(OC)c3oc(-c4ccc(C)cc4)cc23)c1	119	55.7	–
COC(=O)[C@H](CC1CCCCC1)NC(=O)/C=C/c1ccc(OC)c2oc(-c3ccc(C)cc3)cc12	96.1	82.1	–
COc1ccc(-c2cc3c(/C=C/C(=O)NCCc4ccc(O)c(O)c4)ccc(OC)c3o2)cc1	98.2	99.2	Activity (PC-12 [8]): Active; Activity (PC-12 [9]): Active
COc1cccc(C(=O)/C=C/c2ccc(OC)c3oc(-c4ccc(C)cc4)cc23)c1OC	78.2	67.5	–
COc1cc(C(=O)/C=C/c2ccc(OC)c3oc(-c4ccc(C)cc4)cc23)ccc1F	102	83.8	–
COc1ccc(-c2cc3c(/C=C/C(=O)c4cc(OC)c(OC)c(OC)c4)ccc(OC)c3o2)cc1OC	105	95.5	Activity (PC-12 [8]): Active; Activity (PC-12 [9]): Active
COc1ccc(C(=O)/C=C/c2ccc(OC)c3oc(-c4ccc(C)cc4)cc23)cc1OC	80.1	42.9	–
COc1cc(OC)cc(-c2cc3c(/C=C/C(=O)NCCc4ccc(O)c(O)c4)ccc(OC)c3o2)c1	98.7	76.7	viability [3]: < 80%
CC[C@H](NC(=O)/C=C/c1ccc(OC)c2oc(-c3ccc(C)cc3)cc12)C(=O)OC	84	66.4	–
COC(=O)[C@@H]1CCCN1C(=O)/C=C/c1ccc(OC)c2oc(-c3ccc(C)cc3)cc12	75.5	32.3	–
COc1ccc(/C=C/C(=O)c2ccco2)c2cc(-c3ccc(C)cc3)oc12	107	78.5	viability [3]: < 80%
COc1cc(C(=O)/C=C/c2ccc(OC)c3oc(-c4ccc(C)cc4)cc23)cc(OC)c1OC	102	51.6	–
COc1ccc(-c2cc3c(/C=C/C(=O)c4ccc(O)c(OC)c4)ccc(OC)c3o2)cc1	116	77.2	–
COC(=O)[C@H](Cc1c[nH]c2ccccc12)NC(=O)/C=C/c1ccc(OC)c2oc(-c3cc(OC)cc(OC)c3)cc12	105	79.4	–
COC(=O)[C@H](Cc1c[nH]c2ccccc12)NC(=O)/C=C/c1ccc(OC)c2oc(-c3ccc(C)cc3)cc12	117	66.1	–
COc1ccc(/C=C/C(=O)c2ccc(O)cc2)c2cc(-c3ccc(C)cc3)oc12	84.1	55.9	viability [3]: < 80%
COc1cc(OC)cc(-c2cc3c(/C=C/C(=O)c4ccc(O)c(OC)c4)ccc(OC)c3o2)c1	94.6	45.6	–
COC(=O)[C@H](Cc1c[nH]c2ccccc12)NC(=O)/C=C/c1ccc(OC)c2oc(-c3ccc(OC)c(OC)c3)cc12	111	57.1	–
COC(=O)[C@H](Cc1c[nH]c2ccccc12)NC(=O)/C=C/c1ccc(OC)c2oc(-c3ccc(OC)cc3)cc12	96	94.4	–
COc1ccc(C(=O)/C=C/c2ccc(OC)c3oc(-c4ccc(C)cc4)cc23)cc1F	98.8	50.8	–

Source: ChEMBL document CHEMBL6177962, “Design, synthesis and biological evaluation of 2-arylbenzo[b]furan-4-vinylcarbonyl derivatives based on Salvianolic acid C as antioxidant neuroprotective agents for the treatment of ischemic stroke” (Eur J Med Chem, 2025)
